Reference: PMC8151276, “An Integrated Approach toward NanoBRET Tracers for Analysis of GPCR Ligand Engagement” (Molecules, 2021)

Molecular target: T1, VIPR2 (Homo sapiens, UniProt P41587)
T1 construct: purchased Promega (in-house HiBiT-GPCR construct library, NanoBRET)
T1 sequence (P41587 24-438): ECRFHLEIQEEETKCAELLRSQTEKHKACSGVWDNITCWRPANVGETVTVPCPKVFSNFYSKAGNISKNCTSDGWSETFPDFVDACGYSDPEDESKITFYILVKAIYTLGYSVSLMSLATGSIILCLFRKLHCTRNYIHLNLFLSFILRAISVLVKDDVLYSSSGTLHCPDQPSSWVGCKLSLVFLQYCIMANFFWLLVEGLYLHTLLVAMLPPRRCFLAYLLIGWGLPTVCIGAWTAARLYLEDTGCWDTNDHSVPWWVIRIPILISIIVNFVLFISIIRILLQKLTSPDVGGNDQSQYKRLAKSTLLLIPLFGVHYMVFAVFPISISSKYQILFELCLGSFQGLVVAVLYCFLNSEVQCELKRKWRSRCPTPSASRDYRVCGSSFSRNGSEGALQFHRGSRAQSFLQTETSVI
Experiment: NanoBRET screen HiBiT-VIPR2 in HEK293
Assay type: binding
Procedure: Each tracer candidate was screened across the entire library of HiBiT-GPCR constructs using NanoBRET as the detection modality. As depicted in Figure 4A, the specificity of interactions was evaluated through decrease in BRET due to competitive displacement of a bound tracer by excess parental compound. Each tracer was analyzed for binding to each HiBiT-GPCR fusion in the absence and in the presence of competing parental compound. Briefly, HEK293 cells were transfected with HiBiT-GPCR constructs diluted into promoterless DNA to reduce expression and maximize translocation to the cell surface. Each tracer candidate was then screened at concentrations of 1 μM and 0.1 μM across cells expressing these fusions. Cells were treated for 1.5 h with tracer either alone or in the presence of 20 μM competing parental compound (i.e., control). BRET was measured upon addition of purified LgBiT and subsequent complementation with HiBiT genetically fused to a GPCR. The specificity of interactions was assessed through a decrease in BRET signal due to competitive displacement of the bound tracer. To further gauge the robustness of these interactions, the fold response over the control (i.e., BRETtracer/BRETcontrol) was calculated. We chose a 1.5-fold response, which translates to ≥7-fold signal over noise as the minimal threshold required to score an interaction as positive. […]. Below we highlight the screening results obtained for our exemplary fluorescent tracers based on Clozapine, Amitriptyline and AZD1283.
HiBiT-GPCR DNA constructs were diluted in 10 mM Tris pH 8 to a final concentration of 0.01 μg/μL, arrayed in 96-well plates and stored at −20 °C. For transfection, HEK293 cells were suspended in Opti-MEM (without phenol red) supplemented with 2% fetal bovine serum (Seradigm) and 100 units/mL penicillin–streptomycin (Gibco) at a final concentration of 220,000 cells/mL and dispensed into white 96-well plates at 90 μL/well. Subsequent transfections and screens were carried using an Agilent Bravo Automated Liquid Handling Platform. First, the 96-well HiBiT DNA arrays were diluted 25-fold in Opti-MEM (without serum or phenol red) to a final concentration of 0.0004 μg/μL and 20 μL of the diluted DNAs were transferred into new 96-well plates. Next, promoterless carrier DNA (1 μg/μL) was diluted 25-fold (0.04 μg/μL) and then dispensed into the diluted arrays at 20 μL/well. Following brief mixing, Viafect transfection reagent (Promega) diluted 16-fold into Opti-MEM was dispensed into the plates at 40 μL/well. After mixing by pipetting, plates were incubated for 10 min on the pipetting station deck. The DNA-transfection reagent complexes were then added to plates containing cells. To facilitate the screen, 10 μL of DNA-transfection reagent complexes were added in duplicates to the top 4 and bottom 4 rows, resulting in two identical 48-well arrays per plate. Plates with transfected cells were incubated for 18–20 h at 37 °C/5% CO2. A screen of each tracer across the entire library using two different concentrations requires duplicate plates of transfected cells. Depending on the number of tracers being screened, transfections can be scaled up using the same ratios. The next day, for each tracer, four 20× screening solutions in tracer dilution buffer (Promega) were prepared: two duplicates at final concentration of 20 μM and two duplicates at a final concentration of 2 μM. A competing unmodified compound was added to one of each duplicate at a final concentration of 400 μM. The four resulting solutions were diluted 4-fold in Opti-MEM without serum or phenol red to generate 5× solutions (5 µM and 0.5 µM tracer +/− 100 μM competing compound). To screen the library, a BioTek MultiFlo FX liquid dispenser was used to dispense 22.5 µL of tracer solution to the top 4 rows and 22.5 µL tracer + competing compound solution to the 4 bottom rows. Plates were briefly mixed on an orbital shaker and incubated for 1.5 h at room temperature. […]

Structure (SMILES)	NanoBRET Fold Response (VIPR2, tracer 0.1μM)	NanoBRET Fold Response (VIPR2, tracer 1μM)	further results
CCOC(=O)c1cc(C#N)c(N2CCC(C(=O)NS(=O)(=O)Cc3ccccc3/C=C/C(=O)NCCNC(=O)CCc3ccc4n3[B-](F)(F)[N+]3=C(c5ccc[nH]5)C=CC3=C4)CC2)nc1C [AZD1283-1-NB590]			NanoBRET Fold Response (VIPR2, 0.1μM): 1.19; NanoBRET Fold Response (VIPR2, 1μM): 1.15
N#CN=C(NCCCOc1cccc(CN2CCCCC2)c1)NCCNC(=O)CCOCCOCCOCCOCCNC(=O)CCc1ccc2n1[B-](F)(F)[N+]1=C(c3ccc[nH]3)C=CC1=C2 [Aminopotentidine-2-NB590]	1.01	1.08	
CN(C)CCC=C1c2ccccc2CCc2ccc(C(=O)NCCNC(=O)CCOCCOCCOCCOCCNC(=O)CCc3ccc4n3[B-](F)(F)[N+]3=C(c5ccc[nH]5)C=CC3=C4)cc21 [Amitriptyline-a-2-NB590]			NanoBRET Fold Response (tracer at 0.1μM): 0.95; NanoBRET Fold Response (tracer at 1μM): 1.02
CN(C)CCC=C1c2ccccc2CCc2ccc(C(=O)NCCNC(=O)CCOCCOCCOCCOCCNC(=O)CCc3ccc4n3[B-](F)(F)[N+]3=C(c5ccc[nH]5)C=CC3=C4)cc21 [Amitriptyline-b-2-NB590]			NanoBRET Fold Response (tracer at 0.1μM, listed as amitriptyline-b-2-NB590): 1.31; NanoBRET Fold Response (tracer at 1μM, listed as amitriptyline-b-2-NB590): 1.31
CN(CCC=C1c2ccccc2CCc2ccccc21)C(=O)CCOCCOCCOCCOCCNC(=O)CCc1ccc2n1[B-](F)(F)[N+]1=C(c3ccc[nH]3)C=CC1=C2 [Amitriptyline-e-2-NB590]			NanoBRET Fold Response (tracer at 1μM): 1.06
COc1ccc2c(n1)c(CCNC(C)=O)cn2CCNC(=O)CCc1ccc2n1[B-](F)(F)[N+]1=C(c3ccc[nH]3)C=CC1=C2 [Azamelatonin-1-NB590]			NanoBRET Fold Response (0.1μM tracer): 0.99; NanoBRET Fold Response (1μM tracer): 0.99
COc1ccc2[nH]c(-c3ccc(CNC(=O)CCOCCOCCOCCOCCNC(=O)CCc4ccc5n4[B-](F)(F)[N+]4=C(c6ccc[nH]6)C=CC4=C5)cc3)c(CCNC(C)=O)c2n1 [AzomelatoninICO9-2-NB590]			NanoBRET Fold Response (0.1μM tracer): 0.99; NanoBRET Fold Response (1μM tracer): 1.12
O=C(CCOCCOCCOCCOCCNC(=O)CCc1ccc2n1[B-](F)(F)[N+]1=C(c3ccc[nH]3)C=CC1=C2)NCCCN1CCN(C2=Nc3cc(Cl)ccc3Nc3ccccc32)CC1 [Clozapine-a-2-NB590]			NanoBRET Fold Response (VIPR2, 0.1μM tracer): 1.14; NanoBRET Fold Response (VIPR2, 1μM tracer): 0.89
CN1CCN(C2=Nc3cc(Cl)ccc3Nc3ccc(CNC(=O)CCOCCOCCOCCOCCNC(=O)CCc4ccc5n4[B-](F)(F)[N+]4=C(c6ccc[nH]6)C=CC4=C5)cc32)CC1 [Clozapine-b-2-NB590]			NanoBRET Fold Response (VIPR2, 0.1μM tracer): 1.02; NanoBRET Fold Response (VIPR2, 1μM tracer): 0.96
CN1CCN(C2=Nc3cc(Cl)ccc3N(CC(=O)NCCOCCOCCOCCOCCNC(=O)CCc3ccc4n3[B-](F)(F)[N+]3=C(c5ccc[nH]5)C=CC3=C4)c3ccccc32)CC1 [Clozapine-c-2-NB590]			NanoBRET Fold Response (VIPR2, 0.1μM tracer): 0.97; NanoBRET Fold Response (VIPR2, 1μM tracer): 0.86
O=C(CCOCCOCCOCCOCCNC(=O)CCc1ccc2n1[B-](F)(F)[N+]1=C(c3ccc[nH]3)C=CC1=C2)NCCCN1CCN(C2=Nc3ccccc3Oc3ccc(Cl)cc32)CC1 [Loxapine-a-2-NB590]	1.15	0.83	
COc1ccccc1N1CCN(CCCCN2C(=O)c3ccc(CNC(=O)CCOCCOCCOCCOCCNC(=O)CCc4ccc5n4[B-](F)(F)[N+]4=C(c6ccc[nH]6)C=CC4=C5)cc3C2=O)CC1 [NAN-190-2-NB590]	1.05	1.03	
COc1ccccc1N1CCN(CCCCN2C(=O)c3ccc(CNC(=O)CCOCCNC(=O)c4ccc(CNC(=O)CCc5ccc6n5[B-](F)(F)[N+]5=C(c7ccc[nH]7)C=CC5=C6)cc4)cc3C2=O)CC1 [NAN-190-3-NB590]	0.98	0.87	
O=C(CCc1ccc2n1[B-](F)(F)[N+]1=C(c3ccc[nH]3)C=CC1=C2)NCc1ccc(C(=O)NCCOCCC(=O)N[C@@H]2CC[C@@]3(O)[C@H]4Cc5ccc(O)c6c5[C@@]3(CCN4CC3CC3)[C@H]2O6)cc1 [Naltrexone-3-NB590]	1.17	1.05	
Cc1cc2c(s1)Nc1ccccc1N=C2N1CCN(CCCNC(=O)CCOCCOCCOCCOCCNC(=O)CCc2ccc3n2[B-](F)(F)[N+]2=C(c4ccc[nH]4)C=CC2=C3)CC1 [Olanzapine-a-2-NB590]	1.00	1.05	
O=C(CCc1ccc2n1[B-](F)(F)[N+]1=C(c3ccc[nH]3)C=CC1=C2)NCc1ccc(C(=O)NCCOCCOCCNCC(O)COc2cccc3ccccc23)cc1 (centres unmarked) [Propranolol-3-NB590]			NanoBRET Fold Response (VIPR2, 0.1μM): 0.95; NanoBRET Fold Response (VIPR2, 1μM): 1.03
O=C(CCc1ccc2n1[B-](F)(F)[N+]1=C(c3ccc[nH]3)C=CC1=C2)NCCOCCOCCNC(=O)OCCOCCN1CCN(C2=Nc3ccccc3Sc3ccccc32)CC1 [Quetiapine-a-2-NB590]	0.96	0.96	
Cc1nc2n(c(=O)c1CCN1CCC(c3noc4cc(F)ccc34)CC1)CCCC2OC(=O)NCCOCCOCCOCCOCCNC(=O)CCc1ccc2n1[B-](F)(F)[N+]1=C(c3ccc[nH]3)C=CC1=C2 (centres unmarked) [Risperidone-2-NB590]	1.03	0.91	
CC(C)N(CC[C@H](c1ccccc1)c1cc(CCNC(=O)CCOCCOCCOCCOCCNC(=O)CCc2ccc3n2[B-](F)(F)[N+]2=C(c4ccc[nH]4)C=CC2=C3)ccc1O)C(C)C [Tolterodine-2-NB590]	0.98	1.04	
CC(C)N(CC[C@H](c1ccccc1)c1cc(CCNC(=O)c2ccc(CNC(=O)CCc3ccc4n3[B-](F)(F)[N+]3=C(c5ccc[nH]5)C=CC3=C4)cc2)ccc1O)C(C)C [Tolterodine-BZ-NB590]	0.98	1.07	
CCCn1c(=O)c2[nH]c(-c3ccc(OCC(=O)NCCNC(=O)CCOCCNC(=O)c4ccc(CNC(=O)CCc5ccc6n5[B-](F)(F)[N+]5=C(c7ccc[nH]7)C=CC5=C6)cc4)cc3)nc2n(CCC)c1=O [XAC-3-NB590]	0.72	0.91	
